Results from patent US20040023295A1, “Methods and systems for analyzing complex biological systems” (priority 2001, published 2004).

Test system: Saccharomyces cerevisiae wild type strain BY4743
Experiment: Yeast azole drug experiment AF1: metabolite analysis (GC-MS, LC-MS)
Type: cell-based

C[C@@H]1[C@H](O)[C@@H](C)/C=C/C=C/C=C/C=C/C=C/C=C/C=C/[C@H](O[C@@H]2O[C@H](C)[C@@H](O)[C@H](N)[C@@H]2O)C[C@@H]2O[C@](O)(C[C@@H](O)C[C@@H](O)[C@H](O)CC[C@@H](O)C[C@@H](O)CC(=O)O[C@H]1C)C[C@H](O)[C@H]2C(=O)O [Amphoteracin B]
Fold Change of metabolite 5hydroxyL-tryptophan (platform nLC, p-Value 1): 0 | Fold Change of metabolite 6-benzylaminopurine (platform nLC, p-Value 1): 0 | Fold Change of metabolite NacetylD-glucosamine (platform nLC, p-Value 1): 0 | Fold Change of metabolite NacetylL-ornithine (platform nLC, p-Value 1): 0 | Fold Change of metabolite abscisic acid (platform nLC, p-Value 1): 0 | Fold Change of metabolite adenine (platform nLC, p-Value 1): 0 | Fold Change of metabolite adenosine (platform nLC, p-Value 1): 0 | Fold Change of metabolite anthranilic acid (platform nLC, p-Value 1): 0 | Fold Change of metabolite argininosuccinate (platform nLC, p-Value 1): 0 | Fold Change of metabolite benzoic acid (platform nLC, p-Value 1): 0 | Fold Change of metabolite catechol (platform nLC, p-Value 1): 0 | Fold Change of metabolite cinnamic acid (platform nLC, p-Value 1): 0 | Fold Change of metabolite citricanoic/itaconi (platform nLC, p-Value 1): 0 | Fold Change of metabolite coumaric acid (platform nLC, p-Value 1): 0 | Fold Change of metabolite cytosine (platform nLC, p-Value 1): 0 | Fold Change of metabolite diaminopimelic acid (platform nLC, p-Value 1): 0 | Fold Change of metabolite dihydrofolic acid (platform nLC, p-Value 1): 0 | Fold Change of metabolite estrone (platform nLC, p-Value 1): 0 | Fold Change of metabolite farnesol (platform nLC, p-Value 1): 0 | Fold Change of metabolite folic acid (platform nLC, p-Value 1): 0 | Fold Change of metabolite gibberellic (platform nLC, p-Value 1): 0 | Fold Change of metabolite guanine (platform nLC, p-Value 1): 0 | Fold Change of metabolite histidine (platform nLC, p-Value 1): 0 | Fold Change of metabolite homogentisic/uric (platform nLC, p-Value 1): 0 | Fold Change of metabolite hydrocortisone (platform nLC, p-Value 1): 0 | Fold Change of metabolite indole3-pyruvic acid (platform nLC, p-Value 1): 0 | Fold Change of metabolite jasmonic acid (platform nLC, p-Value 1): 0 | Fold Change of metabolite luteolin (platform nLC, p-Value 1): 0 | Fold Change of metabolite malonic acid (platform nLC, p-Value 1): 0 | Fold Change of metabolite methionine (platform nLC, p-Value 1): 0 | Fold Change of metabolite phenylpyruvic acid (platform nLC, p-Value 1): 0 | Fold Change of metabolite phosphoenolpyruvate (platform nLC, p-Value 1): 0 | Fold Change of metabolite pinitol (platform nLC, p-Value 1): 0 | Fold Change of metabolite porphobilinogen (platform nLC, p-Value 1): 0 | Fold Change of metabolite retinoic acid (platform nLC, p-Value 1): 0 | Fold Change of metabolite salicylic/HObenzoic (platform nLC, p-Value 1): 0 | Fold Change of metabolite shikimic acid (platform nLC, p-Value 1): 0 | Fold Change of metabolite sinapinic acid (platform nLC, p-Value 1): 0 | Fold Change of metabolite thymine (platform nLC, p-Value 1): 0 | Fold Change of metabolite DL-aminoadipic acid (platform pLC, p-Value 0.229215472): 0.4703 | Fold Change of metabolite mevalonic lactone (platform pLC, p-Value 0.251617022): −0.4606 | Fold Change of metabolite methionine (platform pLC, p-Value 0.367502423): 0.3299 | Fold Change of metabolite NacetylL-ornithine (platform pLC, p-Value 0.392871315): 1.319 | Fold Change of metabolite citrulline (platform pLC, p-Value 0.433366283): 1.798 | Fold Change of metabolite proline (platform pLC, p-Value 0.474762121): 0.6707 | Fold Change of metabolite ornithine (platform pLC, p-Value 0.48461244): 0.5049 | Fold Change of metabolite arginine (platform pLC, p-Value 0.522893347): 0.4662 | Fold Change of metabolite asparagine (platform pLC, p-Value 0.526485859): 0.6344 | Fold Change of metabolite alanine/sarcosine (platform pLC, p-Value 0.540255177): 0.2602 | Fold Change of metabolite pipecolic acid (platform pLC, p-Value 0.556385814): 0.5237 | Fold Change of metabolite glutamate (platform pLC, p-Value 0.563874982): 0.4341 | Fold Change of metabolite phenylalanine (platform pLC, p-Value 0.573569375): 0.4036 | Fold Change of metabolite mannitol (platform pLC, p-Value 0.575742486): 0.4543 | Fold Change of metabolite glutamine/lysine (platform pLC, p-Value 0.618892728): 0.3981 | Fold Change of metabolite aspartic acid (platform pLC, p-Value 0.626001257): 0.3594 | Fold Change of metabolite threonine/homoserin (platform pLC, p-Value 0.668114613): 0.3145 | Fold Change of metabolite serine (platform pLC, p-Value 0.716422123): 0.2011 | Fold Change of metabolite leucine/isoleucine/ (platform pLC, p-Value 0.723852356): 0.2746 | Fold Change of metabolite hypoxanthine (platform pLC, p-Value 0.74082632): 0.2057 | Fold Change of metabolite pyridoxine (platform pLC, p-Value 0.776529987): −0.1684 | Fold Change of metabolite guanosine (platform pLC, p-Value 0.886514477): 0.7598 | Fold Change of metabolite selenoDL-methionine (platform pLC, p-Value 0.888275646): 1.178 | Fold Change of metabolite adenine (platform pLC, p-Value 0.892253251): 0.1153 | Fold Change of metabolite 4ambutyrate/dimglyc (platform pLC, p-Value 0.920009792): 0.01279 | Fold Change of metabolite glutathione (platform pLC, p-Value 0.951676383): −0.03348 | Fold Change of metabolite 4-aminobenzoic acid (platform pLC, p-Value 1): 0 | Fold Change of metabolite 4-methylcatechol (platform pLC, p-Value 1): 0 | Fold Change of metabolite 5hydroxyL-tryptophan (platform pLC, p-Value 1): 0 | Fold Change of metabolite 6benzylaminopurine (platform pLC, p-Value 1): 0 | Fold Change of metabolite NacetylD-glucosamine (platform pLC, p-Value 1): 0 | Fold Change of metabolite NacetylL-glutamate (platform pLC, p-Value 1): 0 | Fold Change of metabolite abscisic acid (platform pLC, p-Value 1): 0 | Fold Change of metabolite adenosine (platform pLC, p-Value 1): 0 | Fold Change of metabolite allantoic acid (platform pLC, p-Value 1): 0 | Fold Change of metabolite anthranilic acid (platform pLC, p-Value 1): 0 | Fold Change of metabolite argininosuccinate (platform pLC, p-Value 1): 0 | Fold Change of metabolite biotin (platform pLC, p-Value 1): 0 | Fold Change of metabolite caffeine (platform pLC, p-Value 1): 0 | Fold Change of metabolite citric acid TME (platform pLC, p-Value 1): 0 | Fold Change of metabolite cytidine (platform pLC, p-Value 1): 0 | Fold Change of metabolite cytosine (platform pLC, p-Value 1): 0 | Fold Change of metabolite diaminopimelic acid (platform pLC, p-Value 1): 0 | Fold Change of metabolite dihydrofolic acid (platform pLC, p-Value 1): 0 | Fold Change of metabolite dipicolinic acid (platform pLC, p-Value 1): 0 | Fold Change of metabolite folic acid (platform pLC, p-Value 1): 0 | Fold Change of metabolite glucosamine (platform pLC, p-Value 1): 0 | Fold Change of metabolite glucosamine6PO4 (platform pLC, p-Value 1): 0 | Fold Change of metabolite histidine (platform pLC, p-Value 1): 0 | Fold Change of metabolite hydrocortisone (platform pLC, p-Value 1): 0 | Fold Change of metabolite itaconic acid dimes (platform pLC, p-Value 1): 0 | Fold Change of metabolite luteolin (platform pLC, p-Value 1): 0 | Fold Change of metabolite niacinamide (platform pLC, p-Value 1): 0 | Fold Change of metabolite nopaline (platform pLC, p-Value 1): 0 | Fold Change of metabolite phosphoenolpyruvate (platform pLC, p-Value 1): 0 | Fold Change of metabolite progesterone (platform pLC, p-Value 1): 0 | Fold Change of metabolite riboflavin (platform pLC, p-Value 1): 0 | Fold Change of metabolite sugar-phosphate (platform pLC, p-Value 1): 0 | Fold Change of metabolite thiamine (platform pLC, p-Value 1): 0 | Fold Change of metabolite thymine (platform pLC, p-Value 1): 0 | Fold Change of metabolite tryptophan (platform pLC, p-Value 1): 0 | Fold Change of metabolite nicotinic acid (platform pLC, p-Value 7.53474E−05): −0.9989
